Source: ChEMBL document CHEMBL5512614, “Annual review of PROTAC degraders as anticancer agents in 2022” (Eur J Med Chem, 2024)
Values belong to the molecule of their own block, whether it stands above or below them.

Legend:
CWR22R = test: Inhibition of cell growth in human 22Rv1 cells; type: functional, cell-based
[1] = target: Cyclin-dependent kinase 9 (Homo sapiens, UniProt P50750); test: Induction of CDK9 degradation in human 22Rv1 cells; type: cell-based
Cyclin-T1 = Cyclin-T1 (Homo sapiens, UniProt O60563); test: Induction of Cyclin T1 degradation in human 22Rv1 cells; type: cell-based
[2] = target: T1, Protein fem-1 homolog B/Bromodomain-containing protein 4 (Homo sapiens, UniProt O60885+Q9UK73); test: PROTAC activity at FEM1B/BRD4 in HEK293T cells assessed as protein degradation relative to control; type: cell-based
[3] = target: Bromodomain-containing protein 4 (Homo sapiens, UniProt O60885); test: Inhibition of BRD4 in HEK293T cells; type: cell-based
[4] = target: T1, Protein fem-1 homolog B/Bromodomain-containing protein 4; test: PROTAC activity at FEM1B/BRD4 in HEK293T cells assessed as protein degradation; type: cell-based
[5] = target: von Hippel-Lindau disease tumor suppressor/AKT (Homo sapiens, UniProt P31751+Q9Y243+P31749+P40337); test: PROTAC activity at VHL/AKT in human SW620 cells assessed as protein degradation; type: cell-based
[6] = target: RAC-alpha serine/threonine-protein kinase (Homo sapiens, UniProt P31749); test: Inhibition of AKT1 (unknown origin)
[7] = target: RAC-beta serine/threonine-protein kinase (Homo sapiens, UniProt P31751); test: Inhibition of AKT2 (unknown origin)
[8] = target: RAC-gamma serine/threonine-protein kinase (Homo sapiens, UniProt Q9Y243); test: Inhibition of AKT3 (unknown origin)
SW-620 = test: Inhibition of cell growth in human SW620 cells; type: functional
[9] = Stability in human plasma assessed as half life at 2 uM incubated for 120 mins by LC-MS/MS analysis; type: ADME, cell-free
Focal adhesion kinase 1 = Focal adhesion kinase 1 (Homo sapiens, UniProt Q05397); test: Inhibition of FAK (unknown origin) incubated for 50 mins in presence of substrate/ATP by HTRF assay
[10] = target: Protein cereblon/Focal adhesion kinase 1 (Homo sapiens) (UniProt Q05397+Q96SW2); test: PROTAC activity at CRBN/FAK in human A549 cells assessed as protein degradation at 10 nM incubated for 12 hrs by Western blot analysis relative to control; type: cell-based
[11] = target: von Hippel-Lindau disease tumor suppressor/GTPase KRas (Homo sapiens, UniProt P01116+P40337, G12C); test: PROTAC activity at VHL/KRAS G12C mutant in human NCI-H2030 cells assessed as protein degradation incubated for 24 hrs by Western blot analysis; type: cell-based
[12] = Inhibition of EGFR L858R/790M mutant in human NCI-H1975 cells; type: cell-based
[13] = target: T2, Epidermal growth factor receptor (Homo sapiens, UniProt P00533); test: Inhibition of wild-type EGFR in human A-431 cells; type: cell-based
[14] = target: T2, Epidermal growth factor receptor; test: Inhibition of wild-type EGFR in human A549 cells; type: cell-based
[15] = Inhibition of EGFR del19 mutant in human HCC827 cells; type: cell-based
[16] = target: von Hippel-Lindau disease tumor suppressor/Epidermal growth factor receptor (Homo sapiens, UniProt P00533+P40337); test: PROTAC activity at VHL/EGFR del19 mutant in human HCC827 cells assessed as protein degradation; type: cell-based
[17] = tested on: von Hippel-Lindau disease tumor suppressor/Epidermal growth factor receptor (Homo sapiens), P00533+P40337 [UNDEFINED MUTATION]; test: PROTAC activity at VHL/EGFR del19 mutant in human HCC827 cells assessed as protein degradation relative to control; type: cell-based

T1 sequence (Q9UK73 whole entry, looked up, other chains not shown): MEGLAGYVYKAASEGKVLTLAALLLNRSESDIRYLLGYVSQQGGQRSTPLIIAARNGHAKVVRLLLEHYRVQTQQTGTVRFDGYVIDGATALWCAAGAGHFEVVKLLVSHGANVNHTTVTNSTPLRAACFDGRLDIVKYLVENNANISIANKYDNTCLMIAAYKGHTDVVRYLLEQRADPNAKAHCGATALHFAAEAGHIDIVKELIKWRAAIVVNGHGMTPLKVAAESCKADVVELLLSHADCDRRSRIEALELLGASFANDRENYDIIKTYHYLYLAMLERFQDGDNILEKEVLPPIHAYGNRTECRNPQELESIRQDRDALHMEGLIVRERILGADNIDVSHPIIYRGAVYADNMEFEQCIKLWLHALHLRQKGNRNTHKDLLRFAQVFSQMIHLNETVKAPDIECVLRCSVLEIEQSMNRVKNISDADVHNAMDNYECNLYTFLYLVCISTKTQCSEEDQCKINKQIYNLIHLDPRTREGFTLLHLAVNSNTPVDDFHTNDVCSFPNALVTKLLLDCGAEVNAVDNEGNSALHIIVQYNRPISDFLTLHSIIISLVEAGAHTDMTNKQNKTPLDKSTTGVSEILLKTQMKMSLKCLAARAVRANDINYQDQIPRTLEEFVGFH
T2 sequence (P00533 whole entry): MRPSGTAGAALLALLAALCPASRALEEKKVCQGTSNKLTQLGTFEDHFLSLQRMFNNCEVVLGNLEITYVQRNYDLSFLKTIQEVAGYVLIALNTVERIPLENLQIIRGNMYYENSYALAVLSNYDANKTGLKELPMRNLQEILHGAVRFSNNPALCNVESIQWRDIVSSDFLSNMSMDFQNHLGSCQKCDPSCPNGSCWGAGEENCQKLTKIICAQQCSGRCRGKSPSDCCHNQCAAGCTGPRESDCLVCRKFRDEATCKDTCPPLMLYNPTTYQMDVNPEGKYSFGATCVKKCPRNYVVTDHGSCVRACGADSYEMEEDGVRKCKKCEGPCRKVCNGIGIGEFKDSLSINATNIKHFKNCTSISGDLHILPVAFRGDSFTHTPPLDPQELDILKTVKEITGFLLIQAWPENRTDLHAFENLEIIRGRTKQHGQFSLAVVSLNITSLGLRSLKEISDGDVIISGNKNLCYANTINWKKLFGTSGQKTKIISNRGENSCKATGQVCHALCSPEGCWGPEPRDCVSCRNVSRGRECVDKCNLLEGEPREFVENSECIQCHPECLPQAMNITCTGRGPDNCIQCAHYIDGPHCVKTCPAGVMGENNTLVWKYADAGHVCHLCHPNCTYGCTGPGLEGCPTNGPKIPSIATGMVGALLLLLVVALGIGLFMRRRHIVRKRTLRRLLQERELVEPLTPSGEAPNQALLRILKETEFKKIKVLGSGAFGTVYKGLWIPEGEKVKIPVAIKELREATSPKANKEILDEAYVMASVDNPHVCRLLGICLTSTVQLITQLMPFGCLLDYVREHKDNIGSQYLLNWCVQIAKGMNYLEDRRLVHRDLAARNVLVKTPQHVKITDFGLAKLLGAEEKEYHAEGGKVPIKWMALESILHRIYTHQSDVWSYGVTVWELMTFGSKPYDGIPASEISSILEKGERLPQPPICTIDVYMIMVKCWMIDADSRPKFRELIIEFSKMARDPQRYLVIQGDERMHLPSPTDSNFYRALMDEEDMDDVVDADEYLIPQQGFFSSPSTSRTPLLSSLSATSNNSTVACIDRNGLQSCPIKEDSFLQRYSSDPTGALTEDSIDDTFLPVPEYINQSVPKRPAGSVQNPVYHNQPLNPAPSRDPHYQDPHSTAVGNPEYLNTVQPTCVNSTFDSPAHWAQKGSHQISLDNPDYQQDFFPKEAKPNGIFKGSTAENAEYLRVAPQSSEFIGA
Cyclin-dependent kinase 9, sequence (P50750 whole entry): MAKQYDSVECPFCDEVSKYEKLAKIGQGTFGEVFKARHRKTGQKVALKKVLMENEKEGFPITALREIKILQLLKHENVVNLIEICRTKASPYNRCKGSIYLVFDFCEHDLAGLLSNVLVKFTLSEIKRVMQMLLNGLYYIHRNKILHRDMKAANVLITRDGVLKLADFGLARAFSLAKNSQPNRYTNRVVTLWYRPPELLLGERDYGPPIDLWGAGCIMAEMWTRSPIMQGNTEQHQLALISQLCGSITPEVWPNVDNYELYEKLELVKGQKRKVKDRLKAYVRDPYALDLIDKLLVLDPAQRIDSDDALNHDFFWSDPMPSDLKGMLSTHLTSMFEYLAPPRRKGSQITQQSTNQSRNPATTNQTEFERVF
Cyclin-T1, sequence (O60563 whole entry): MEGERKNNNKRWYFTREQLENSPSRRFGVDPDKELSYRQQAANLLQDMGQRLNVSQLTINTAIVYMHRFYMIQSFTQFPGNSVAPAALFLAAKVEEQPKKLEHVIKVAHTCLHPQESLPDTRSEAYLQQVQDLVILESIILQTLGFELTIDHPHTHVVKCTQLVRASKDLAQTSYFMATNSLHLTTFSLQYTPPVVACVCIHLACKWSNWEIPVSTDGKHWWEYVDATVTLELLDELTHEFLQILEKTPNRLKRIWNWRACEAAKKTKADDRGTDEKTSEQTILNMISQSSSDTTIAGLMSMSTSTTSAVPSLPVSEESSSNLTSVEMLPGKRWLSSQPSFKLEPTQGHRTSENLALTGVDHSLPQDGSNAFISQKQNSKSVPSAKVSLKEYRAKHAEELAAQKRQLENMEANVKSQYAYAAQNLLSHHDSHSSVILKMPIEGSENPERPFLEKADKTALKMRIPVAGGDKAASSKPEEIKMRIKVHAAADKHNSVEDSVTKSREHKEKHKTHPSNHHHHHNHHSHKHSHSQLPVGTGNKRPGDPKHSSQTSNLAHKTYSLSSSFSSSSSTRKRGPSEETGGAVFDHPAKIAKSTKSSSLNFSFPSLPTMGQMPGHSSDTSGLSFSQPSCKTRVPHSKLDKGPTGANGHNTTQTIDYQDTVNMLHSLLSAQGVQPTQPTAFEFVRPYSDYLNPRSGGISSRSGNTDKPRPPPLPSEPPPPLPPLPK
RAC-alpha serine/threonine-protein kinase, sequence (P31749 whole entry): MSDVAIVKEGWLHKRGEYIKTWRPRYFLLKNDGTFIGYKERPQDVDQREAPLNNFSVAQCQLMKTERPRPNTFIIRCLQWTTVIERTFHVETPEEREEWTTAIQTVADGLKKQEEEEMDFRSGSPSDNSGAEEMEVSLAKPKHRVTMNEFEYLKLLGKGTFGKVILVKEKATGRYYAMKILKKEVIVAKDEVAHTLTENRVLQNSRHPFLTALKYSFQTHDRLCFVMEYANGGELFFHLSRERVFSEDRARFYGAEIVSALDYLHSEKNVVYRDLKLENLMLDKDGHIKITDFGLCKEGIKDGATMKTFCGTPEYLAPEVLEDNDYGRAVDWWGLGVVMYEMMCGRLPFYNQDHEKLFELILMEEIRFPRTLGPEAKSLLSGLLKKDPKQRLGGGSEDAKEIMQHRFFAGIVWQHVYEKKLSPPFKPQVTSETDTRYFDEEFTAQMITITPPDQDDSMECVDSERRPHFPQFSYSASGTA
RAC-beta serine/threonine-protein kinase, sequence (P31751 whole entry): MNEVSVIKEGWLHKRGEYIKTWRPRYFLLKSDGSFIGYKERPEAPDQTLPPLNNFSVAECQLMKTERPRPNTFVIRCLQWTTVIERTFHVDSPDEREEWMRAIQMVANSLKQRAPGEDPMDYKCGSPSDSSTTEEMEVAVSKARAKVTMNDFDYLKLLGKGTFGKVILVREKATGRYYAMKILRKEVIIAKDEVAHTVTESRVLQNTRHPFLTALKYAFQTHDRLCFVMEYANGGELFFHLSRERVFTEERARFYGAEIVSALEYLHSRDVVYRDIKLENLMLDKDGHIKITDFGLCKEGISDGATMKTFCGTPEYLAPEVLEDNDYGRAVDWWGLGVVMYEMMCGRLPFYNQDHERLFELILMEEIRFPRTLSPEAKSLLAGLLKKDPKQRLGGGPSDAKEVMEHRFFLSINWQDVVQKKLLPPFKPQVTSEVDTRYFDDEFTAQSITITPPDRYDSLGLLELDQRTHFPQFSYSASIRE
von Hippel-Lindau disease tumor suppressor/GTPase KRas, sequence (P01116 whole entry G12C, stated change not applied): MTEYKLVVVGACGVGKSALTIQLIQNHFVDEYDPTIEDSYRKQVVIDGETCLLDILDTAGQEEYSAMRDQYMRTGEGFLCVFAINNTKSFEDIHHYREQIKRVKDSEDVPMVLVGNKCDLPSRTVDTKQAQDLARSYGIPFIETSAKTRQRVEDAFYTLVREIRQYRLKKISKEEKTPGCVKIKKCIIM
von Hippel-Lindau disease tumor suppressor/GTPase KRas, sequence (P40337 whole entry, stated change not applied): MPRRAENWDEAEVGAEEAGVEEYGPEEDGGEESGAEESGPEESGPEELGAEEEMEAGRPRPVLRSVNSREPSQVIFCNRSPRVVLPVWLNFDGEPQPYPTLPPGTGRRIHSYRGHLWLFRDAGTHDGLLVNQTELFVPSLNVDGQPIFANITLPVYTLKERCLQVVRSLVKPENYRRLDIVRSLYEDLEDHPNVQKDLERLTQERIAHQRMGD
RAC-gamma serine/threonine-protein kinase, sequence (Q9Y243 whole entry): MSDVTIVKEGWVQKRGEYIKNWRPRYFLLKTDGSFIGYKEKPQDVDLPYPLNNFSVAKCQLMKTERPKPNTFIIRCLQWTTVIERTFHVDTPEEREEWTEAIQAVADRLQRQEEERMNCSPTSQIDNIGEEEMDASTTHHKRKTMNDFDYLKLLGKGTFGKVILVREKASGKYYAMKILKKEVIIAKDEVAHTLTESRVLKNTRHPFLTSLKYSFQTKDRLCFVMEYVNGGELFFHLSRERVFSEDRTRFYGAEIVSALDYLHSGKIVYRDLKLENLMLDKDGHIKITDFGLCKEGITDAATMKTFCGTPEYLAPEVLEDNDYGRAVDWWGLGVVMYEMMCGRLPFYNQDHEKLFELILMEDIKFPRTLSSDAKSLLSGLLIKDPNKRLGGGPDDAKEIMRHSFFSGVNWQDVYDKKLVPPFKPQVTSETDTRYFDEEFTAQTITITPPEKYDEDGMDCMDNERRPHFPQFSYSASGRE

DC50 [1]: 62 nM
DC50 (Cyclin-T1): 589 nM
Structure (SMILES): CC1CCC(C(C)C)C(OCC(=O)NCCS(=O)(=O)N2CCC(C(=O)Nc3ncc(SCc4ncc(C(C)(C)C)o4)s3)CC2)C1 (stereo unspecified)
IC50 (CWR22R): 95 nM

Emax [2]: 94%
IC50 [3]: 1400 nM
DC50 [4]: 250 nM
Structure (SMILES): Cc1sc2c(c1C)C(c1ccc(Cl)cc1)=N[C@H](CC(=O)NCCCCCNC(=O)CN1CCOc3cc(N(CCC#N)C(=O)CCl)ccc31)c1nnc(C)n1-2

DC50 [5]: 23 nM
IC50 [6]: 798 nM
IC50 [7]: 90 nM
IC50 [8]: 544 nM
GI50 (SW-620): 3100 nM
Structure (SMILES): Cc1ncsc1-c1ccc(C(C)NC(=O)C2CC(O)CN2C(=O)C(NC(=O)CCCCCCCCCCNC(=O)CCc2cccc(-c3ccc4nc(-c5cccnc5N)n(-c5ccc(C6(N)CCC6)cc5)c4n3)c2)C(C)(C)C)cc1 (stereo unspecified)

half-life at 2 µM [9]: > 3.25 h
IC50 (Focal adhesion kinase 1): 26.4 nM
Emax [10]: 85%
Structure (SMILES): CN(c1ncccc1CNc1nc(Nc2ccc(N3CCN(CCCCCCC(=O)NCCNc4cccc5c4C(=O)N(C4CCC(=O)NC4=O)C5=O)CC3)cc2)ncc1C(F)(F)F)S(C)(=O)=O (stereo unspecified)

Structure (SMILES): C=C(F)C(=O)N1CCN(c2nc(OC[C@@H]3CCCN3CCCOCCC(=O)N[C@H](C(=O)N3CC(O)C[C@H]3C(=O)NCc3ccc(-c4scnc4C)cc3)C(C)(C)C)nc3c2CCN(c2cccc4cccc(Cl)c24)C3)C[C@@H]1CC#N (stereo partly specified)
DC50 [11]: 590 nM

Structure (SMILES): Cc1ncsc1-c1ccc(CNC(=O)C2CC(O)CN2C(=O)C(NC(=O)CCCCCCCCCCn2cc(COc3cc4ncnc(Nc5ccc(F)c(Cl)c5)c4cc3NC(=O)/C=C/CN3CCCCC3)nn2)C(C)(C)C)cc1 (stereo unspecified)
IC50 [12]: > 20000 nM
IC50 [13]: > 20000 nM
IC50 [14]: > 20000 nM
IC50 [15]: 6 nM
DC50 [16]: 3.57 nM
Emax [17]: 91%
